The melting point is the temperature, or range, at which the solid turns liquid.

`CCOC(=O)c1cccc(Cc2ccc3ccccc3c2O)c1` showed a melting point of 86 to 87 °C.
The molecule `Nc1nc(N)c2c(CCCc3ccc(C(=O)N[C@@H](CCC(=O)O)C(=O)O)cc3)cnc-2[nH]1` had a melting point greater than 250 °C.
In the case of `CC(C)c1nc(CN2C(=O)C3(COc4cc5c(cc43)OCCO5)c3ccccc32)cs1` (configuration not stated) it was 60 to 63 °C.
In the case of `O[C@H]1C[C@@H](c2ccccc2)c2ccc(Cl)cc21` it was 109 °C; in that of `O=C(c1cccs1)c1cnn2c(-c3cccc(NCc4ccco4)c3)ccnc12`, 124 to 128 °C.
In the case of `CN(C)CCCc1ccc2c(c1)CCCN2C(=O)c1ccc(-c2ccccc2)cc1` it was 100 to 101 °C.
`Cn1c(-c2ccc(-c3cccnc3)cc2)cnc1[C@H](Cc1ccccn1)N(C=O)c1cc2cc(Cl)ccc2o1` registered a melting point of 158 to 160 °C.
`CNc1nc(NS(=O)(=O)c2ccc(N)cc2)cc(N2CCC2)n1` had a melting point of 295 to 296 °C.
In the case of `CNS(=O)(=O)c1c(C)cc(OC)cc1C` it was 131 °C.
In the case of `O=C(COc1ccccc1)NC1C(=O)N2C(C(=O)OCc3ccc([N+](=O)[O-])cc3)=C(O)CCC12` (configuration not stated) it was 160 to 162 °C; in that of `CCCN(CCC)C(=O)n1cnc(S(=O)(=O)C(C)C)n1`, 61 °C; in that of `COc1cc2c(cc1F)C(c1ccccc1Cl)=NC1=CNNC1=N2`, 242 to 243 °C.
In the case of `O=c1ccn(C2=CCN(Cc3ccc(Br)cc3)C=C2)cc1` it was 166 to 168 °C.
In turn, `COc1ccc(-n2c(=O)n(OCc3ccccc3)c(=O)c3cc(F)c(Cl)nc32)cc1` came in with a melting point of 238 to 240 °C.
`Cn1cc(Br)cc([N+](=O)[O-])c1=O`: the melting point was 122 to 123 °C.
In the case of `O=C(O)[C@@H]1CSCN1C(=O)CCc1ccccc1` it was 93 to 95 °C; in that of `CC(C)(C)OC(=O)C[C@H](NC(=O)c1cccc(NC(=O)Cc2ccc(C(=N)N)cc2)c1)C(=O)N[C@@H](Cc1ccccc1)C(=O)OC(C)(C)C`, 125 °C.
Under `COc1ccc(-c2cc(Cl)on2)cc1` stands 82 to 83 °C; under `Cc1nc(-c2ccc3ccc(Cn4c(C(C)C)nc5cc[nH]c(=O)c54)cc3c2)no1`, 214 to 215 °C; under `Cc1nc2c(n1C)CCCC2=O`, 98.1 °C.
In turn, `CCCN(CCC)Cc1nc(-c2ncn3c2CN(C)C(=O)c2c-3cccc2C(F)(F)F)no1` came in with a melting point of 216 to 218 °C.
In the case of `CSC1=NC(C)(C)SC1=NO` it was 168 to 171 °C; in that of `OCc1cc2c3ccccc3n(Cc3ccccc3)c2s1`, 81 to 82 °C.
In the case of `CC(C)CCOC(=O)COc1cc(F)ccc1C(=O)NCc1cccc([N+](=O)[O-])c1` it was 65 to 68 °C.
Take `NC(=O)c1cnc2ccsc2c1Cl`: the melting point lay within 180 to 182 °C.
Under `CON=C(c1ccccc1COc1cc(C)ccc1C)C1OCCO1` stands 136 to 137 °C.
`CCCC(=O)c1cc(OC)c(O)c([N+](=O)[O-])c1` showed a melting point of 92 to 93 °C.
In the case of `Fc1cc(Br)cc(OCc2ccc3ccccc3c2)c1` it was 65 to 67 °C.
In the case of `O=C(C=Cc1ccc(Cl)c([N+](=O)[O-])c1)N1CCc2c([nH]c3ccccc23)C1c1ccc2c(c1)OCO2` (configuration not stated) it was 240 °C; in that of `O=C(Nc1ccc(C(=O)N2CCC(O)c3ccccc32)cc1)c1cc(Cl)cc(Cl)c1` (configuration not stated), 215 to 217 °C.
Under `Cc1ccc(Cl)c(N)c1C(N)=O` stands 124 to 128 °C; under `Nc1nc2ccccc2c2c1ncn2Cc1ccccc1`, 257 to 259 °C.
Take `COc1cc2c(Nc3ccc(Cl)cc3F)c(C#N)cnc2cc1OCc1ccccc1`: the melting point was in the range of 241 to 243 °C.
In the case of `CC(C)(O)C#Cc1ccc(C(=C2CC(C)(C)CC(C)(C)C2)c2ccc(O)cc2)cc1` it was 186 to 187 °C; in that of `CCOc1cc(-c2cc(C(F)(F)F)n3ncc(C(=O)Nc4cccc(S(N)(=O)=O)c4)c3n2)ccc1C(F)(F)F`, 253 °C.
As for `CC(C)Oc1nc(SCc2cccc(C(F)(F)F)c2)nc2[nH]c(=O)cnc12`, the melting point was in the range of 205 to 206 °C.
Regarding `Clc1nc(Nc2ccc(OCc3ccccc3)c(Cl)c2)nc(NC2CCCCCC2)n1`, the melting point is 110 °C.
Take `O=C1N(Cc2ccc(C(F)(F)F)o2)c2cc3c(cc2C12COc1cc4c(cc12)CCO4)OCCO3` (configuration not stated): the melting point was 189 to 191 °C.
Under `Nc1ncc(Cl)nc1Cl` stands 117 to 118 °C; under `COc1cc(COc2cccc(O)c2C)cc(OC)c1`, 63 to 69 °C.
In the case of `CC(=NOCCO)c1ccc(S(=O)(=O)c2ccccc2)nc1` it was 77 to 78 °C; in that of `COc1ccnc(CCc2nc3cc(-c4ccc(S(=O)(=O)NC5CCCCC5)cc4)cnc3[nH]2)c1`, 199 to 200 °C; in that of `CCCCCCc1cc2c(s1)-n1c(C)nnc1CN=C2c1ccc(C)cc1C`, 99 to 101 °C.
Molecule `CN1CCN(c2cc(Cl)cc3c2c(=O)n(Cc2ccc(N)cc2)c(=O)n3Cc2ccccc2)CC1` displayed a melting point of 93 to 96 °C.
Under `CCCCCCCc1ccc(C(=O)Nc2ccc(C(=O)NN=C3C(=O)Nc4ccc(I)cc43)cc2)cc1` stands 306 °C; under `Cc1cnc(C(=O)NC(C)C)c(C(=O)O)c1`, 95 to 105 °C.
Under `CCCc1cccc2cc(C(=O)O)oc12` stands 75 to 80 °C; under `CCNC(=O)n1nc(Oc2c(Cl)cc(C(F)(F)F)cc2Cl)c(CC)c1C`, 120 to 123 °C; under `CCNC(=O)OC1=C(c2ccccc2)Oc2ccccc2-n2cccc21`, 74 to 75 °C.
In the case of `COc1cc(-c2cccc3ccccc23)nc(N)n1` it was 160 °C.
`COC(=O)c1ccc(OC)c(NC(=N)c2ccc(F)c(Cl)c2)c1` displayed a melting point of 120 °C.
Under `Cc1cc(C)c(C(CO)c2ccc(C(C)C)cc2)c(O)c1` (configuration not stated) stands 101 to 102 °C.
In the case of `Cc1csc2ccc3[nH]c4c(c3c12)CN(CCCC(c1ccc(F)cc1)c1ccc(F)cc1)CC4`, the melting point is 158 °C.
Turning to `COc1ccc(S(=O)(=O)N2CCC[C@H]2C(=O)N2CCN(C(=O)c3ccc(C=NN)cc3)CC2)c(OC)c1COc1cccc2c(C)cc(C)nc12`, the melting point turned out to be 136 °C.
Under `CC(C)C(=O)O[C@H]1[C@H](C)OC(=O)[C@@H](NC(=O)OC(C)(C)C)COC(=O)[C@@H]1CC(=O)O` stands 164 to 167 °C; under `O=C(c1ccccc1)c1ccc([N+](=O)[O-])c(F)c1`, 77 to 79 °C.
In the case of `Cc1cc(-c2ccc(C(F)(F)F)nc2)cc(-c2cccc(-c3cccc(S(N)(=O)=O)c3)n2)n1` it was 233 to 234 °C; in that of `COc1cc(SC(C)C)cc(C#N)c1N`, 81 to 82 °C; in that of `O=C(NC(Nc1c(Nc2cccnc2)c(=O)c1=O)C(F)(F)C(F)(F)F)c1cccc(Cl)c1` (configuration not stated), 212 to 213 °C.
In the case of `CCOC(=O)c1cn(-c2ccccc2)nc1OCc1ccccc1`, the melting point fell in the range of 113 to 114 °C.
As to `CN1C(=O)C(c2ccc(OC(F)F)cc2)(c2cccc(CCCCO)c2)N=C1N` (configuration not stated), the melting point lay within 63 to 66 °C.
In turn, `N=c1sc2cc(OC(F)(F)F)ccc2n1CCS(=O)C1CCN(Cc2ccccc2)CC1` (configuration not stated) displayed a melting point of 97 °C.
In the case of `NC(=O)c1ccc(CCCOCCCCCCNCC(O)c2cc(Cl)c(N)c(Cl)c2)cc1` (configuration not stated) it was 91 to 94 °C; in that of `COc1ccc(N(C(=O)F)C(=O)Cl)cc1Cl`, 124 to 127 °C.
`COc1cccc(C2(Cn3ccnc3)CC(CSc3ccc(C)cc3)ON2C)c1` (configuration not stated) registered a melting point of 107 to 108 °C.
Consider `COC(=O)c1c(-c2cc(OC)c(OC)c(OC)c2)c2cc(OC)c(CC#N)cc2c(=O)n1-c1ccc(NC(=O)OC(C)(C)C)cc1`, for which the melting point lay within 136 to 138 °C.
In the case of `O=C(O)c1cccc(-n2c(-c3ccc(Br)cc3)cc3c2CCCC3)c1` it was 242 to 244 °C; in that of `CS(=O)(=O)c1ccc(C(O)C(CF)N=[N+]=[N-])cc1` (configuration not stated), 121 to 123 °C.
Under `O=c1c(-c2ccc(O)cc2)coc2ccccc12` stands 237 to 238 °C.
Under `O=C(O)c1cc(Cl)cc2c1OCCO2` stands 180 °C.
In turn, `CNC(=O)/C(=N/OC)c1ccccc1COc1ccc(-c2ccccc2)cc1` showed a melting point of 136 to 137 °C.
As for `CCCCCCCCCCCCCCCCOc1cccc(O)c1C`, the melting point is 53 to 54 °C.
In the case of `CCN(CC)C(=O)Cc1c(N)n[nH]c1-c1ccc(OC)cc1` it was 154 to 158 °C; in that of `NS(=O)(=O)c1cccc(NC(=O)NC2N=C(c3ccccc3F)c3ccccc3N(CC(=O)N3CC4CCC(CC4)C3)C2=O)c1` (racemic), 221 to 226 °C; in that of `CCCCCCCN(CCOCCSc1nc(-c2ccc(OC)cc2)c(-c2ccc(OC)cc2)[nH]1)C(=O)NC(C)C`, 85 to 87 °C.
`O=C1CC(CCc2ccccc2)Nc2ccccc2N1Cc1ccccc1` (configuration not stated) registered a melting point of 135 to 137 °C.
Under `COc1ccc2[nH]c(C(=O)C(C)(C)c3ccc(Cl)cc3)cc2c1` stands 177 to 179 °C.
`CNC(=S)n1nc(-c2ccc(Cl)c3ccccc23)nc1N` had a melting point of 270 to 272 °C.
Under `Cc1ccc(C(=S)CC2CCCN(C)C2)cc1` (configuration not stated) stands 61.5 to 62.5 °C; under `CSc1ccc(C(=O)Nc2c(Cl)cncc2Cl)cc1OC1CCCC1`, 157 to 159 °C.
For the molecule `CN1c2ccc(C#CCOC3CCCCO3)cc2C(=O)CS1(=O)=O` (configuration not stated), the melting point fell in the range of 107 to 108 °C.
Regarding `CC(C)c1cc(Cl)nc(-c2ccc(C#N)cc2)n1`, the melting point stood at 114 °C.
With `CCN1CCN(CCN2CC[C@H](NC(=O)c3cc(Cl)c(N)cc3OC)[C@H](OC)C2)C1=O` (relative stereo), the melting point came to 153 °C.
Under `O=c1oc(-c2cccc(C(F)(F)F)c2)ns1` stands 85 to 86.5 °C; under `CCCCCC(=O)c1cccc(OCc2ccc3ccccc3c2)c1`, 52 to 55 °C; under `COc1ccc(CC2C3=C(CCCC3)CCN2C(=O)C2CCC2)cc1` (configuration not stated), 89 to 91 °C.
`O=C(O)c1ccccc1Oc1ccc(Br)cc1[N+](=O)[O-]`: the melting point was 136 to 138 °C.

The record behind these values is a melting point compilation (Tetko et al.; mined from patent text by program, amines drawn as free bases though some values may be those of a salt).
